Calls of active or inactive are those of the source. No cut-off for these calls is given here.
What was measured:
[1] = target: T1, ATP-dependent translocase ABCB1 (Homo sapiens, UniProt P08183); test: Inhibition of P-glycoprotein-mediated drug efflux in human NCI/ADR-RES cells assessed as calcein AM accumulation after 30 mins by fluorescence spectrophotometry; assay type: cell-based; details: 0.5 h
[2] = target: T1, ATP-dependent translocase ABCB1; test: Inhibition of P-glycoprotein-mediated drug efflux in human NCI/ADR-RES cells assessed as paclitaxel accumulation after 30 mins by HPLC; assay type: cell-based; details: 0.5 h
NCI/ADR-RES [3] = test: Potentiation of vinblastine-induced cytotoxicity against P-gp expressing human NCI/ADR-RES cells assessed as reduction of vinblastine CC50 at 10 uM after 3 days by MTT assay; assay type: functional
NCI/ADR-RES [4] = test: Potentiation of paclitaxel-induced cytotoxicity against P-gp expressing human NCI/ADR-RES cells assessed as reduction of paclitaxel CC50 at 10 uM after 3 days by MTT assay; assay type: functional
NCI/ADR-RES [5] = test: Cytotoxicity against human NCI/ADR-RES cells at 10 uM after 3 days by MTT assay; assay type: functional, cell-based

T1 sequence (P08183 whole entry): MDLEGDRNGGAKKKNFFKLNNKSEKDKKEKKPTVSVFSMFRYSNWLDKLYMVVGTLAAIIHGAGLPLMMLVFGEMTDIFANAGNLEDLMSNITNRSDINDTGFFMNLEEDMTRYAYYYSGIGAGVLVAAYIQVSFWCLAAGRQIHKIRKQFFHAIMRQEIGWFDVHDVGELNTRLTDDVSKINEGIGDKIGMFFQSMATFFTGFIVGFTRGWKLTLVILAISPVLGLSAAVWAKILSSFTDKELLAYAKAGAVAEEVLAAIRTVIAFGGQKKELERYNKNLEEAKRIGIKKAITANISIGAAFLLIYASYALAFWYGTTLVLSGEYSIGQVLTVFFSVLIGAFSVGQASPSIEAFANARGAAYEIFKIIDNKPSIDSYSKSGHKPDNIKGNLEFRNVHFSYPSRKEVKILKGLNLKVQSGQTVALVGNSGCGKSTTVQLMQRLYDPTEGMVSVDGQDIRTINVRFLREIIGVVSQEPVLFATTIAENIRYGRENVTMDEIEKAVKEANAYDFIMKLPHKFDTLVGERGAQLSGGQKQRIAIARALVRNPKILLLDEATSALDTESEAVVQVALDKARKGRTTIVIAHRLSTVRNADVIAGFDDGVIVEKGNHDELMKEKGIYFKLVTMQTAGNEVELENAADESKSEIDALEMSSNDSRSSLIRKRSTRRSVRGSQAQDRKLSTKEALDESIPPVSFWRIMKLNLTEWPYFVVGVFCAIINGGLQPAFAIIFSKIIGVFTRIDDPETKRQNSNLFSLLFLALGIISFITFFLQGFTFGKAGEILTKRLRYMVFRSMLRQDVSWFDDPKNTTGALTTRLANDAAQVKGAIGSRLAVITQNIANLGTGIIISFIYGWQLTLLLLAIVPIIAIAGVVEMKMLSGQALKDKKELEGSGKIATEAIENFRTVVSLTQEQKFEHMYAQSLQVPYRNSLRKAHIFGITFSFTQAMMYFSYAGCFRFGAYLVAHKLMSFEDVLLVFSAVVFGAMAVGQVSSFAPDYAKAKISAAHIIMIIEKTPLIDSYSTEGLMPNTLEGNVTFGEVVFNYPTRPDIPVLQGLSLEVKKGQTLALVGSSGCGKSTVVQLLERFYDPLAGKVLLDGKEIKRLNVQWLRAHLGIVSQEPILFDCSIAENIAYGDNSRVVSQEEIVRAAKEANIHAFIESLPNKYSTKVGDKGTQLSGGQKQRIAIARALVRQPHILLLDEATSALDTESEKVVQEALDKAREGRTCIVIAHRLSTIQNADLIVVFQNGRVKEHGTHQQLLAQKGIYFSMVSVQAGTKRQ

inhibition (INH) [1]: Dose-dependent effect | inhibition (INH) [2]: Dose-dependent effect
SMILES: COc1c(O)cc2oc(-c3ccccc3)cc(=O)c2c1O [OROXYLIN A]
fold change (FC) (NCI/ADR-RES [3]): 5 | fold change (FC) (NCI/ADR-RES [4]): 5 | Activity (NCI/ADR-RES [5]): inactive
